Laboratory results reported in the METLIN SMRT retention time set (Domingo-Almenara et al. 2019).

Assay: gradient 5% acetonitrile 3 min, to 50% in 2 min, to 85% in 15 min, held 3 min, 100 µL/min
Settings: column: Zorbax Extend-C18 2.1 x 50 mm; eluents: water / acetonitrile, 0.1% formic acid
Summary of the method: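 Standards, all pure, were combined into mixtures of ~100 molecules and run at 100 μL/min on a Zorbax Extend-C18 column (2.1 × 50 mm, 1.8 μm) with water and acetonitrile, each containing 0.1% formic acid. A coupled quadrupole time-of-flight mass spectrometer operated in positive and negative ionization mode. Retention time values come from computationally picked adduct peaks, each inspected manually.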

| SMILES | RP-LC retention time [s] |
| --- | --- |
| CCCCn1nc2c(S(=O)(=O)N3CCCCC3)cccn2c1=O | 831 |
| CCOc1ccc(NC(=O)N2CCN(c3cc(C)nc(N4CCCC4)n3)CC2)cc1 | 681 |
| CC(C)c1cccc(NC(=O)c2cn(C)nc2S(=O)(=O)N2CCSCC2)c1 | 1090 |
| COCC1CN(C)CC12CCN(S(=O)(=O)c1cc(F)ccc1C)CC2 (stereo not drawn) | 661 |
| Cc1cc(C)n(-c2ccnc(N3CCC(C(=O)NCCN4CCCC4)CC3)n2)n1 | 587 |
| O=C(NC1CCCCCCC1)c1nnc(-c2ccc(S(=O)(=O)N3CCOCC3)cc2)o1 | 991 |
| COc1ccccc1N1CCN(CCN(C(=O)C2CCCCC2)c2ccccn2)CC1 | 816 |
| COc1cccc(CNC(=O)Nc2cc3c(cc2N2CCCC2)n(C)c(=O)n3C)c1 | 600 |
| CC(C)(C)C(=O)Nc1nnc(-c2cccs2)o1 | 652 |
| COc1ccc(NC(=O)C2CCN(c3cc(N4CCCC4)ncn3)CC2)cc1OC | 616 |
| CCOC(=O)c1cc(S(=O)(=O)N2CCCC2C(=O)NC(C)(C)CC)cn1C (stereo not drawn) | 931 |
| COc1ccc2c(CCNC(=O)c3cc(OC)c(OC)c(OC)c3)c[nH]c2c1 | 758 |
| COc1ccc(NC(=O)N2CCC3(CC2)NC(=O)c2ccc(F)cc2N3C)cc1 | 727 |
| O[C@@H](c1cc(C(F)(F)F)nc2c(C(F)(F)F)cccc12)[C@@H]1CCCCN1 | 829 |
| CCCSCCCNC(=O)CN1C(=O)CCn2nc(-c3cn(C)c4ccccc34)cc21 | 832 |
| CCCN(C)C(=O)c1cc2c(s1)N(CC1CC1)CCCC2 | 1160 |
| COc1ccc(NC(=O)N2CCN(c3cc(C)nc(N4CCCC4)n3)CC2)c(C)c1 | 692 |
| CC(C)NC(=O)C1CCCN(c2cc(=O)n(C)c(=O)n2C)C1 (stereo not drawn) | 595 |
| CCOc1cc(C(=O)NC2CCN(c3cc(-c4ccc(OC)cc4)[nH]n3)C2)cc(OCC)c1OCC (stereo not drawn) | 806 |

| SMILES | RP-LC retention time [s] |
| --- | --- |
| OC(CN1CCN(c2ncccn2)CC1)c1ccc(Br)cc1 (stereo not drawn) | 607 |
| Cc1nc(Nc2ccc(F)cn2)sc1C(=O)N1CCN(c2ncccn2)CC1 | 719 |
| CN1CC(=O)NC(c2ccccc2Br)C1=O (stereo not drawn) | 550 |
| Cn1nc(-c2nc(C3CC3)no2)c2c1CCN(C(=O)c1ccc(C(C)(C)C)cc1)C2 | 1290 |
| CC(C)(C)c1nnc(NC(=O)C2CC(=O)N(CCc3c[nH]c4ccc(F)cc34)C2)s1 (stereo not drawn) | 782 |
| Cc1ccc(-c2cc(C(F)(F)F)on2)cc1S(=O)(=O)N1CCCCC1C (stereo not drawn) | 852 |
| CN(CCc1noc(-c2ccc(C(=O)N3CCOCC3)cc2)n1)C(=O)C1CCCCC1 | 752 |
| CCCn1cc(C(=O)N2CCOCC2)c2cccnc21 | 640 |
| O=C(NCc1cccs1)c1cc2n(n1)CCCC2 | 753 |
| CSc1ccc(CNC(=O)C2CCCN(c3ccc(N4CCOCC4)nn3)C2)cc1 (stereo not drawn) | 653 |
| COCCCNC(=O)C1CCC(=O)N(c2ccc(OC)cc2)C1c1ccc(OC)c(OC)c1 (stereo not drawn) | 612 |
| CC(C)C(=O)N1CCN(c2nc(CN3CCCCC3)cs2)CC1 | 603 |
| CN1CCN(Cc2nn(C)c3c2CN(S(=O)(=O)c2ccc(F)c(Cl)c2)CC3)CC1 | 622 |
| CC(C)c1nnc(NC(=O)c2cc(Cl)ccc2Cl)s1 | 828 |
| COc1ccc(NC(=O)c2nc(N3CCC(C)CC3)c3cnn(C)c3n2)cc1 | 966 |
| COc1cc(C(=O)N2CCC3(CC2)NC(=O)c2ccc(F)cc2N3C)cc(OC)c1OC | 655 |
| O=C(NCCCO)C(=O)NCCc1ccc(Cl)cc1 | 698 |
| Cc1cccc(OCC(=O)N2CCN(c3cc(C)n4c(C)nnc4n3)CC2)c1 | 614 |

Other lines, results leading:

| RP-LC retention time [s] | SMILES |
| --- | --- |
| 1080 | O=S(=O)(c1ccc(Cl)cc1)N1CCc2nc(-c3ccccc3)ncc2C1 |
| 925 | O=c1ccc(N2CCCN(S(=O)(=O)c3ccccc3F)CC2)nn1-c1ccc(Cl)cc1 |
| 1290 | Cc1ccc(-c2csc(NC(=O)COc3ccc(C)cc3Br)n2)cc1 |
| 884 | Cc1ccc(CCNC(=O)Cc2csc3nc(-c4ccc(C)c(C)c4)cn23)cc1 |
| 1360 | O=S(=O)(NCCC1=CCCCC1)c1cccc(-c2nc(-c3ccccc3)no2)c1 |
| 679 | CC(=O)Nc1ccc(NC(=O)C2CC(=O)N(CCc3c[nH]c4ccc(Cl)cc34)C2)cc1 (stereo not drawn) |
| 1130 | COc1ccccc1-c1noc(Cn2c(=O)n(Cc3ccccc3Cl)c(=O)c3sccc32)n1 |
| 665 | COc1ccc(OC)c(CNC(=O)c2cn3ccccc3n2)c1 |
| 916 | Cc1ccc(C)c(C(=O)N2CCCC(COc3ccc(C(=O)NC(C)C)cc3)C2)c1 (stereo not drawn) |
| 620 | O=C(c1cccnc1)N1CCCCC1c1nncn1Cc1ccccc1 (stereo not drawn) |
| 826 | CCOc1ccccc1CNC(=O)C1CCCN(c2nnc3ccc(Cl)cn23)C1 (stereo not drawn) |
| 1280 | CCOC(=O)c1cccc(NC(=O)C2CCCN(c3nc4ccccc4nc3C(F)(F)F)C2)c1 (stereo not drawn) |
| 828 | CCC(C)C(=O)N1CCCN(C2=NS(=O)(=O)C(c3ccc(C)cc3)=C2C)CC1 (stereo not drawn) |
| 1180 | CC(C)c1ccc(NC(=O)Cn2cnc3c(sc4nc(-c5ccccc5)ccc43)c2=O)cc1 |
| 798 | O=C(OCc1ccccc1)c1nc2ccccc2nc1N1CCN(c2ccccn2)CC1 |
| 1040 | Cc1ccc(C)c(S(=O)(=O)N2CCc3c(c(-c4nnc(-c5ccc(F)cc5)o4)nn3C)C2)c1 |
| 663 | COc1ccc(-c2nc3ccccn3c2Nc2ccc(C)cc2)cc1O |
| 768 | O=C(CSc1nnc(NC(=O)COc2ccc(Cl)cc2)s1)NCc1ccco1 |
| 735 | CCc1noc(NC(C)=O)c1-c1ccc(OC)c(S(=O)(=O)Nc2ccc(C#N)cc2)c1 |
| 875 | Cc1ccc2[nH]cc(CCNC(=O)CCc3nnc(C(=O)Nc4ccccc4)s3)c2c1 |
| 711 | O=C1CCC(C(=O)N2CCC(c3c[nH]c4ccccc34)(c3c[nH]c4ccccc34)CC2)N1 (stereo not drawn) |
| 673 | COc1ccc(-c2nc3cnccn3c2NCCC(=O)Nc2ccc3c(c2)OCO3)cc1 |
| 567 | Cc1cccc(CN2CCCn3nc(C(=O)NCCCN4CCOCC4)cc3C2=O)c1 |
| 819 | Cc1ccn2c(NC(=O)C(C)(C)Oc3ccc(Cl)cc3)c(-c3ccc(F)cc3)nc2c1 |
| 1160 | O=C(NCc1ccc(F)cc1)c1nnc(-c2ccc(S(=O)(=O)N3CCCCC3)cc2)o1 |
| 958 | Cc1nn(CC(=O)NCC2CCCCC2)c(=O)c2nc(-c3ccccc3)sc12 |

| RP-LC retention time [s] | SMILES |
| --- | --- |
| 1070 | CCc1ccc(S(=O)(=O)N2C[C@@H]3C(=O)N(C(CC)c4cccs4)C(=O)[C@@H]3C2)cc1 (stereo partly drawn) |
| 733 | COc1ccc(-c2ncccc2CNS(=O)(=O)c2ccc(Br)cc2)cc1 |
| 920 | Cc1ccccc1N1C(=O)CN(S(=O)(=O)c2ccccc2)CC1(C)C(=O)NC1CCCC1 (stereo not drawn) |
| 1250 | Cc1sc(C)c(S(=O)(=O)NCC(C)c2ccccc2)c1-c1cc(C(F)(F)F)on1 (stereo not drawn) |
| 666 | COC(=O)c1ccccc1NC(=O)c1ccc(-n2ccnc2)nn1 |
| 624 | CNC(=O)Cc1csc(NC(=O)CN(C)c2nc3ccccc3s2)n1 |
| 1370 | CCCc1ccc(S(=O)(=O)N2CCC(c3noc(-c4cccc(C)c4)n3)CC2)cc1 |
| 1150 | Cc1ccc(Cn2c(=O)c3sccc3n(Cc3nc(-c4ccccc4)no3)c2=O)cc1 |
| 1000 | CCOC(=O)c1noc2ncnc(Nc3ccccc3)c12 |
| 729 | COc1ccc(CCC(=O)N2CCC3(C2)C(=O)Nc2ccccc23)cc1 (stereo not drawn) |
| 1130 | COc1ccc(-c2noc(CN3N=NC4C(=O)N(c5ccc(F)c(F)c5)C(=O)C43)n2)cc1 (stereo not drawn) |
| 1210 | CCc1ccc(-c2noc(Cn3c(=O)n(Cc4ccccc4)c(=O)c4sccc43)n2)cc1 |
| 855 | CCn1cc(S(=O)(=O)NCc2ccc(F)cc2Cl)c2cccnc21 |
| 690 | Cc1ccc(N2CCN(C(=O)c3cn4cc(C)ccc4n3)CC2)cc1 |
| 810 | CCOC(=O)COc1cc(-c2ccc(F)cc2)nc2ccc(NC(=O)C3CCC3)cc12 |
| 667 | Cc1cc(NC(=O)c2ccccc2)nc(C)n1 |
| 934 | CCOc1ccc(-c2cn3ccn(-c4cc(Cl)ccc4C)c(=O)c3n2)cc1 |
| 1070 | Cc1ccc(-c2csc(NC(=O)CN3C(=O)COc4ccc(Cl)cc43)n2)cc1 |
| 1150 | CCCc1nc(-n2cccc2)sc1C(=O)Nc1ccc(OC)cc1F |
| 980 | CCOc1ccc(N2C(=O)C3N=NN(Cc4nc(-c5ccccc5OCC)no4)C3C2=O)cc1 (stereo not drawn) |
| 825 | O=C(Nc1cccc(OCc2nnc(-c3ccccc3)o2)c1)c1cnccn1 |
| 667 | COc1ccc(-c2n[nH]c3c2C(c2ccc(O)cc2)N(C)C3=O)cc1 (stereo not drawn) |
| 688 | Cn1nc(-c2nnc(-c3ccccc3)o2)c2c1CCN(S(=O)(=O)c1ccc3c(c1)CCC3)C2 |
| 1000 | COc1ccc(OC)c(NC(=O)N(C)CCc2noc(COc3ccc(Cl)cc3)n2)c1 |
| 942 | CCc1ccc(N2C=C(C(=O)OC)S(=O)(=O)c3ccccc32)cc1 |
